Active and inactive are the calls of the source. The calls are words filed in the database; no cut-off is given here.
Experiments:
Mus musculus [1] = assay: Neurotoxicity in ip dosed albino CF1 mouse assessed as minimum dose required to cause toxicity after 0.5 hrs by rotarod test; format: organism-based; conditions: in vivo
Mus musculus [2] = assay: Neurotoxicity in albino CF1 mouse assessed as minimal motor impairment at 30 mg/kg, ip after 0.5 hrs by rotarod test; format: toxicity, organism-based; set-up: dose 30 mg/kg, route intraperitoneal; conditions: in vivo
Mus musculus [3] = assay: Anticonvulsant activity in albino CF1 mouse assessed as protection against maximal electroshock-induced seizures at 100 mg/kg, ip after 0.5 hrs; format: functional, organism-based; set-up: dose 100 mg/kg
Mus musculus [4] = assay: Anticonvulsant activity against subcutaneous metrazole-induced seizures in ip dosed albino CF1 mouse assessed as minimum effective dose after 4 hrs; format: functional; conditions: albino CF1, 4 h, read-out: MED
Mus musculus [5] = assay: Neurotoxicity in albino CF1 mouse assessed as minimal motor impairment at 30 mg/kg, ip after 4 hrs by rotarod test; format: toxicity, organism-based; set-up: dose 30 mg/kg, route intraperitoneal; conditions: in vivo
Mus musculus [6] = assay: Neurotoxicity in albino CF1 mouse assessed as minimal motor impairment at 100 mg/kg, ip after 0.5 hrs by rotarod test; format: toxicity, organism-based; set-up: dose 100 mg/kg, route intraperitoneal; conditions: in vivo
Mus musculus [7] = assay: Neurotoxicity in albino CF1 mouse assessed as minimal motor impairment at 100 mg/kg, ip after 4 hrs by rotarod test; format: toxicity, organism-based; set-up: dose 100 mg/kg, route intraperitoneal; conditions: in vivo
Mus musculus [8] = assay: Neurotoxicity in albino CF1 mouse assessed as minimal motor impairment at 300 mg/kg, ip after 0.5 hrs by rotarod test; format: toxicity, organism-based; set-up: dose 300 mg/kg, route intraperitoneal; conditions: in vivo
Mus musculus [9] = assay: Neurotoxicity in albino CF1 mouse assessed as minimal motor impairment at 300 mg/kg, ip after 4 hrs by rotarod test; format: toxicity, organism-based; set-up: dose 300 mg/kg, route intraperitoneal; conditions: in vivo
Mus musculus [10] = assay: Anticonvulsant activity in albino CF1 mouse assessed as protection against maximal electroshock-induced seizures at 100 mg/kg, ip after 4 hrs; format: functional, organism-based; set-up: dose 100 mg/kg
Mus musculus [11] = assay: Anticonvulsant activity in albino CF1 mouse assessed as protection against maximal electroshock-induced seizures at 300 mg/kg, ip after 0.5 hrs; format: functional, organism-based; set-up: dose 300 mg/kg
Mus musculus [12] = assay: Anticonvulsant activity in albino CF1 mouse assessed as protection against maximal electroshock-induced seizures at 300 mg/kg, ip after 4 hrs; format: functional, organism-based; set-up: dose 300 mg/kg
Mus musculus [13] = assay: Anticonvulsant activity in albino CF1 mouse assessed as protection against subcutaneous metrazole-induced seizures at 30 mg/kg, ip after 0.5 hrs; format: functional, organism-based; set-up: dose 30 mg/kg
Mus musculus [14] = assay: Anticonvulsant activity in albino CF1 mouse assessed as protection against subcutaneous metrazole-induced seizures at 30 mg/kg, ip after 4 hrs; format: functional, organism-based; set-up: dose 30 mg/kg
Mus musculus [15] = assay: Anticonvulsant activity in albino CF1 mouse assessed as protection against subcutaneous metrazole-induced seizures at 100 mg/kg, ip after 0.5 hrs; format: functional, organism-based; set-up: dose 100 mg/kg
Mus musculus [16] = assay: Anticonvulsant activity in albino CF1 mouse assessed as protection against subcutaneous metrazole-induced seizures at 100 mg/kg, ip after 4 hrs; format: functional, organism-based; set-up: dose 100 mg/kg
Mus musculus [17] = assay: Anticonvulsant activity in albino CF1 mouse assessed as protection against subcutaneous metrazole-induced seizures at 300 mg/kg, ip after 0.5 hrs; format: functional, organism-based; set-up: dose 300 mg/kg
Mus musculus [18] = assay: Anticonvulsant activity in albino CF1 mouse assessed as protection against subcutaneous metrazole-induced seizures at 300 mg/kg, ip after 4 hrs; format: functional, organism-based; set-up: dose 300 mg/kg
Mus musculus [19] = assay: Neurotoxicity in albino CF1 mouse assessed as minimal motor impairment at 30 to 300 mg/kg, po after 4 hrs by rotarod test; format: toxicity, organism-based; set-up: dose 30-300 mg/kg, route oral; conditions: in vivo
Mus musculus [20] = assay: Anticonvulsant activity in albino CF1 mouse assessed as protection against maximal electroshock-induced seizures at 30 mg/kg, ip after 0.5 hrs; format: functional, organism-based; set-up: dose 30 mg/kg
Mus musculus [21] = assay: Anticonvulsant activity in albino CF1 mouse assessed as protection against maximal electroshock-induced seizures at 30 mg/kg, ip after 4 hrs; format: functional, organism-based; set-up: dose 30 mg/kg
Mus musculus [22] = assay: Neurotoxicity in ip dosed albino CF1 mouse assessed as minimum dose required to cause toxicity after 4 hrs by rotarod test; format: organism-based; conditions: in vivo
Mus musculus [23] = assay: Anticonvulsant activity against maximal electroshock-induced seizures in ip dosed albino CF1 mouse assessed as minimum effective dose after 0.5 hrs; format: functional; conditions: read-out: MED
Mus musculus [24] = assay: Anticonvulsant activity against maximal electroshock-induced seizures in ip dosed albino CF1 mouse assessed as minimum effective dose after 4 hrs; format: functional; conditions: read-out: MED
Mus musculus [25] = assay: Anticonvulsant activity against subcutaneous metrazole-induced seizures in ip dosed albino CF1 mouse assessed as minimum effective dose after 0.5 hrs; format: functional; conditions: albino CF1, 0.5 h, read-out: MED
Mus musculus [26] = assay: Neurotoxicity in albino CF1 mouse assessed as minimal motor impairment at 30 to 300 mg/kg, ip after 0.5 hrs by rotarod test; conditions: in vivo

SMILES | MED (Mus musculus [1]) [mg/kg] | Activity (Mus musculus [2]) | minimal effective dose (Mus musculus [4]) [mg/kg] | Activity (Mus musculus [5]) | Activity (Mus musculus [6]) | Activity (Mus musculus [7]) | Activity (Mus musculus [8]) | Activity (Mus musculus [9]) | Activity (Mus musculus [10]) | Activity (Mus musculus [11]) | Activity (Mus musculus [12]) | Activity (Mus musculus [13]) | Activity (Mus musculus [14]) | Activity (Mus musculus [15]) | Activity (Mus musculus [16]) | Activity (Mus musculus [17]) | Activity (Mus musculus [18]) | Activity (Mus musculus [20]) | Activity (Mus musculus [21]) | MED (Mus musculus [22]) [mg/kg] | also measured
Clc1ccc(-c2nc(-c3ccccc3)c[nH]2)cc1 | > 300 | Non-toxic | > 300 | Non-toxic | Non-toxic | Non-toxic | Non-toxic | Non-toxic | inactive | inactive | inactive | inactive | inactive | inactive | inactive | inactive | inactive | inactive | inactive | > 300 | Activity (Mus musculus [3]): inactive; Activity (Mus musculus [19]): Non-toxic; minimal effective dose (Mus musculus [23]): > 300 mg/kg; minimal effective dose (Mus musculus [24]): > 300 mg/kg; minimal effective dose (Mus musculus [25]): > 300 mg/kg; Activity (Mus musculus [26]): Non-toxic
c1ccc(-c2c[nH]c(-c3ccco3)n2)cc1 | 100 | Non-toxic | > 300 | Non-toxic | Non-toxic | Non-toxic | Toxic | Toxic | inactive | Active | Active | inactive | inactive | inactive | inactive | inactive | inactive | inactive | inactive | 100 | minimal effective dose (Mus musculus [23]): 100 mg/kg; minimal effective dose (Mus musculus [24]): 100 mg/kg; minimal effective dose (Mus musculus [25]): > 300 mg/kg; Activity (Mus musculus [26]): Non-toxic
O=[N+]([O-])c1ccc(-c2c[nH]c(-c3ccccc3)n2)cc1 | > 300 | Non-toxic | > 300 | Non-toxic | Non-toxic | Non-toxic | Non-toxic | Non-toxic | inactive | Active | Active | inactive | inactive | inactive | inactive | inactive | inactive | inactive | inactive | > 300 | Activity (Mus musculus [19]): Non-toxic; minimal effective dose (Mus musculus [23]): 100 mg/kg; minimal effective dose (Mus musculus [24]): 100 mg/kg; minimal effective dose (Mus musculus [25]): > 300 mg/kg; Activity (Mus musculus [26]): Non-toxic
O=[N+]([O-])c1ccc(-c2nc(-c3cccc(C(F)(F)F)c3)c[nH]2)cc1 | > 300 | Non-toxic | > 300 | Non-toxic | Non-toxic | Non-toxic | Non-toxic | Non-toxic | inactive | inactive | Active | inactive | inactive | inactive | inactive | inactive | inactive | inactive | inactive | > 300 | Activity (Mus musculus [3]): inactive; Activity (Mus musculus [19]): Non-toxic; minimal effective dose (Mus musculus [23]): > 300 mg/kg; minimal effective dose (Mus musculus [24]): 100 mg/kg; minimal effective dose (Mus musculus [25]): > 300 mg/kg; Activity (Mus musculus [26]): Non-toxic

From ChEMBL document CHEMBL1275354, “Anticonvulsant activity of 2,4(1H)-diarylimidazoles in mice and rats acute seizure models” (Bioorg Med Chem, 2010)
